# From article PMC12156033, “N-Alkylamino Stilbene Compounds as Amyloid β Inhibitors for Alzheimer’s Disease Research” (Molecules, 2025)
# Entries after “also recorded” stand apart in the source; their conditions may differ.
# Columns and labels:
# [1] = biological target: T1, soluble Aβ42 aggregates (sAβ) (Homo sapiens, UniProt P05067); assay: Fluorescence spectra of compounds with soluble Aβ42 aggregates; format: binding; conditions: excitation 380 nm; compound 5.0 µM in PBS with soluble Aβ aggregates
# T1 construct: commercial Aβ42 peptide (AnaSpec or GL Biochem); purchased AnaSpec or GL Biochem
# Procedure: (§1) All fluorescence measurements were performed using a SpectraMax M2e plate reader (Molecular Devices, San Jose, CA, USA). The fluorescence spectra of the compounds’ solution (100 μL PBS, 5.0 µM) were recorded with excitation at 380 nm and an emission wavelength from 400 to 680 nm. To PBS solutions (100 μL) of the compounds (5.0 µM), various Aβ42 species were added, with final concentrations of 5.0 µM and 25.0 µM, and their fluorescence spectra (λmax of emission) were determined as described above.
# (§2) Aβ42 powder was prepared by dissolving commercial Aβ42 peptide (AnaSpec or GL Biochem) in ammonium hydroxide solution (1%, v/v). The solution was then aliquoted out and lyophilized overnight. The resulting aliquoted powder was stored at −80 °C. Aβ42 monomers were generated by dissolving Aβ42 powder in 1,1,1,3,3,3-hexafluoro-2-propanol (HFIP, 1 mM) and incubating for 1 h at room temperature. The solution was then evaporated overnight and dried by vacuum centrifuge to result in monomeric films. Aβ42 fibrils were generated by dissolving the monomeric Aβ42 films in DMSO, diluting into the appropriate buffer, and incubating for 24 h at 37 °C with continuous agitation (final DMSO concentration was <2%). For the preparation of Aβ42 oligomers, the peptides were suspended in PBS buffer and incubated overnight at 4 °C.
# [2] = Fluorescence spectra of the compounds alone in PBS; format: physicochemical; conditions: excitation 380 nm; compound 5.0 µM in PBS
# Procedure: as §1
# [3] = Log D measurement octanol/PBS; format: physicochemical; conditions: octanol / PBS pH 7.4, 10 μM, triplicate, ± SD
# Procedure: The determination of log D values for N-alkylamino multifunctional compounds was performed using a slightly modified reported procedure. The compounds (final concentration 10 μM) were added to the premix suspension containing 0.5 mL octanol and 0.5 mL octanol-saturated PBS buffer (pH = 7.4). The resulting mixture was stirred vigorously for 5 min and centrifuged at 2000 rpm for 5 min. The octanol layer was separated from the PBS layer, and the fluorescence spectrum was recorded. The remaining 0.5 mL PBS layer was partitioned with 0.5 mL PBS-saturated octanol, and the octanol layer was separated after 5 min of vigorous shaking and centrifuging. The fluorescence spectrum of the octanol layer was recorded. The log D value was calculated based on the fluorescence intensity ratio for the two octanol layers. Each experiment was completed in triplicate, and the error represents the standard deviation for the average log D values.
# Aβ42 fibrils = biological target: T2, Aβ42 fibrils (Homo sapiens, UniProt P05067); assay: Fluorescence spectra of compounds with Aβ42 fibrils; format: binding; conditions: excitation 380 nm; compound 5.0 µM in PBS with Aβ fibrils
# T2 construct: commercial Aβ42 peptide (AnaSpec or GL Biochem); purchased AnaSpec or GL Biochem
# Procedure: as §1, §2
# [4] = biological target: T3, amyloid plaques in 5xFAD mice brain sections (Homo sapiens, UniProt P05067); assay: Histological staining of 5xFAD mice brain sections, colocalization with HJ3.4 antibody; format: binding, mouse; conditions: 11-month-old 5xFAD mice brain sections, compound 25 μM, HJ3.4 1 μg/mL
# T3 construct: the amyloid beta (Aβ) peptide that makes up amyloid plaques; tissue Jackson Laboratories; host or cells: brain sections from 11-month-old 5xFAD transgenic mice (Tg6799 line)
# From the text: To further investigate the affinity of the developed compounds toward various Aβ aggregates in situ, the intrinsic fluorescence properties of the compounds were employed for their ability to stain insoluble amyloid plaques. For these studies, brain sections from 11-month-old 5xFAD transgenic mice, which rapidly develop severe amyloid pathology, were co-stained with stilbenes and HJ3.4 antibody. HJ3.4 is an anti-amyloid antibody that binds to the N-terminal region of the Aβ peptide, thereby targeting both soluble and insoluble amyloid species. To evaluate the Aβ binding specificity of the compounds in vitro, brain sections from 11-month-old 5xFAD mice were washed with PBS (3 × 5 min) and blocked with bovine serum albumin (2% w/v BSA in PBS, pH 7.4, 10 min). Then, the sections were incubated with 25 μM of multifunctional compounds and sequentially stained with HJ3.4 antibody (Professor David Holtzman, 1 μg/mL) for 30 min. The brain sections were treated with 2% w/v BSA-PBS again for 4 min to remove any compounds or antibodies that were non-specifically binding to the tissue. Finally, the sections were washed with PBS (3 × 2 min) and DI water (2 min) and mounted with non-fluorescent mounting media (Vectashield). Colocalization analysis and determination of Pearson’s correlation coefficient were performed with the imaging software Fiji (ImageJ 1.52p). Mouse brains were harvested in compliance with the Institutional Animal Care and Use Committee of the University of Illinois at Urbana-Champaign (IACUC protocol #22094).
# [5] = tested on: Cu-Aβ42 cytotoxicity on N2a cells; assay: N2a cell rescue from Cu-induced Aβ42 cytotoxicity (Alamar blue); format: cell-based, mouse; conditions: [Aβ42] = [CuCl2] = 20 μM, compound 5 μM
# Procedure: Mouse neuroblastoma Neuro2A (N2A) cell lines were purchased from the American Type Culture Collection (ATCC), Manassas, VA, USA. Cells were grown in DMEM/10% FBS, which is the regular growth media for N2A cells, in a humidified atmosphere with 5% CO2 at 37 °C. N2A cells were seeded in a clear 96-well plate (2.5 × 10^4/well) with DMEM/10% FBS. The media was changed to DMEM/N-2 media 24 h later. After 1 h, the treatment reagents were added. Owing to the poor solubility of compounds in the media, the final amount of DMSO used was 1% (v/v). After an additional incubation of 40 h, Alamar Blue solution was added to each well, and the cells were incubated for 90 min at 37 °C. Fluorescence intensity was measured at 590 nm (excitation wavelength = 560 nm).
# The Alamar Blue assay was carried out as described, with the following treatment reagents: 20 μM Aβ42 species, 5 μM compounds, and 20 μM CuCl2.
# [6] = biological target: T4, Aβ aggregates (sAβ and Aβ fibrils) (Homo sapiens, UniProt P05067); assay: Fluorescence turn-on assay with Aβ aggregates; format: binding; conditions: compound 5 μM in PBS pH 7.4
# T4 construct: commercial Aβ42 peptide (AnaSpec or GL Biochem); purchased AnaSpec or GL Biochem
# Procedure: A fluorescence turn-on assay was performed to interrogate the effect of structural differences on the fluorescence enhancement with Aβ aggregates. […] Increases in fluorescence intensity with different aggregates would be ideal for tools used in amyloid-based assays. […] Without the ortho-methoxy group on the EAG, there is greater fluorescence enhancement for Aβ fibrils over sAβ for L3 and L4. […] The larger fluorescence enhancement observed for L6 than L5 indicates the dimethylamine EDG/methoxy EAG pair has a greater TICT. The piperidine-EDG-containing L7 has only slightly higher turn-on with sAβ, which may be attributed to the ortho-methoxy group on the EAG. […] In this case, it appears that the methoxy on the EAG diminishes the overall fluorescence of the compound since L8 has greater baseline fluorescence and turn-on than L7. This is also the case for the morpholine-EDG-containing L9 and L10. The lack of a methoxy group on the L10 EAG, in conjunction with the oxygen heteroatom from the morpholine EDG, electronically favors turn-on with Aβ fibrils to a slight extent. […] Changing the EDG to a methyl piperazine, L11, increases baseline fluorescence and turn-on compared to L9. […] L11 and L12, both containing an N-methyl piperazine EDG, show similar turn-on with sAβ and fibrils, and the o-methoxy EAG of L11 increases overall baseline fluorescence compared to L12. […] The spectra for the remaining compounds can be found in the Supplementary Information (Figure S1). None of the three compounds with the highest fluorescence contained an o-methoxy group on the EAG.
# All fluorescence measurements were performed using a SpectraMax M2e plate reader (Molecular Devices, San Jose, CA, USA). The fluorescence spectra of the compounds’ solution (100 μL PBS, 5.0 µM) were recorded with excitation at 380 nm and an emission wavelength from 400 to 680 nm. To PBS solutions (100 μL) of the compounds (5.0 µM), various Aβ42 species were added, with final concentrations of 5.0 µM and 25.0 µM, and their fluorescence spectra (λmax of emission) were determined as described above. […]
# T1 sequence (P05067 672-713 limits assumed): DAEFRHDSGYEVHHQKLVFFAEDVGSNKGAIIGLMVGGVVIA
# T3 sequence (P05067 672-713 limits assumed): as above
# T2 sequence (P05067 672-713 limits assumed): as above
# T4 sequence (P05067 672-713 limits assumed): as above
SMILES,Compound+sAβ λem (λmax of emission) [1],Compound λem (λmax of emission) [2],logD [3],Compound+Fibrils λem (λmax of emission) (Aβ42 fibrils),Pearson's coefficient (R) of colocalization with AF594-HJ3.4 [4],effect on Cu-stabilized Aβ42 / Aβ42-induced toxicity [5],fluorescence enhancement / turn-on with Aβ aggregates [6]
"CNc1ccc(/C=C/c2ccc(O)c(CN3CCN(C)CCN(C)CC3)c2)cc1 [Compound L3, (E)-2-((4,7-dimethyl-1,4,7-triazonan-1-yl)methyl)-4-(4-(methylamino)styryl)phenol]",430 nm,455 nm,0.98 ± 0.01,430 nm,0.72,–,–
"COc1cc(/C=C/c2ccc(N(C)C)cc2)cc(CN2CCN(C)CCN(C)CC2)c1O [Compound L1, (E)-2-((4,7-dimethyl-1,4,7-triazonan-1-yl)methyl)-4-(4-(dimethylamino)styryl)-6-methoxyphenol]",455 nm,455 nm,1.33 ± 0.01,455 nm,0.67,rescue cells from Cu-Aβ42 cytotoxicity,–
"CCN(CC)c1ccc(/C=C/c2ccc(O)c(CN3CCN(C)CCN(C)CC3)c2)cc1 [Compound L6, (E)-4-(4-(diethylamino)styryl)-2-((4,7-dimethyl-1,4,7-triazonan-1-yl)methyl)phenol]",430 nm,455 nm,1.37 ± 0.01,430 nm,0.70,–,–
"CCN(CC)c1ccc(/C=C/c2cc(CN3CCN(C)CCN(C)CC3)c(O)c(OC)c2)cc1 [Compound L5, (E)-4-(4-(diethylamino)styryl)-2-((4,7-dimethyl-1,4,7-triazonan-1-yl)methyl)-6-methoxyphenol]",435 nm,460 nm,1.39 ± 0.01,435 nm,0.74,rescue cells from Cu-Aβ42 cytotoxicity,–
"COc1cc(/C=C/c2ccc(N3CCN(C)CC3)cc2)cc(CN2CCN(C)CCN(C)CC2)c1O [Compound L11, (E)-2-((4,7-dimethyl-1,4,7-triazonan-1-yl)methyl)-6-methoxy-4-(4-(4-methylpiperazin-1-yl)styryl)phenol]",450 nm,455 nm,0.85 ± 0.01,450 nm,0.77,inhibit both Cu-stabilized Aβ42- and Aβ42-induced toxicity; also recorded: rescue cells from Cu-Aβ42 cytotoxicity,–
"COc1cc(/C=C/c2ccc(N3CCCCC3)cc2)cc(CN2CCN(C)CCN(C)CC2)c1O [Compound L7, (E)-2-((4,7-dimethyl-1,4,7-triazonan-1-yl)methyl)-6-methoxy-4-(4-(piperidin-1-yl)styryl)phenol]",430 nm,460 nm,1.35 ± 0.02,430 nm,0.66,–,–
"CN1CCN(C)CCN(Cc2cc(/C=C/c3ccc(N4CCOCC4)cc3)ccc2O)CC1 [Compound L10, (E)-2-((4,7-dimethyl-1,4,7-triazonan-1-yl)methyl)-4-(4-morpholinostyryl)phenol]",435 nm,455 nm,1.03 ± 0.01,435 nm,0.74,rescue cells from Cu-Aβ42 cytotoxicity,highest fluorescence intensity; also recorded: greatest overall fluorescence enhancements
